Measured values reported in ChEMBL document CHEMBL4715897, “A new 1-nitro-9-aminoacridine derivative targeting yeast topoisomerase II able to overcome fluconazole-resistance” (2021).
≈ marks a conversion by molar mass, not a printed value. Calls of active or inactive are those of the source. The calls are words filed in the database; no cut-off is given here.

Key:
Candida albicans [1] = assay: Fungicidal activity against Candida albicans ATCC 10231 assessed as bacterial killing at concentration of 0.25 MIC after 5 hrs relative to control; type: functional
Candida albicans [2] = assay: Antibiofilm activity against Candida albicans ATCC 10231 at concentration of 0.25 MIC by XTT assay; type: functional, organism-based
Candida albicans [3] = assay: Fungicidal activity against Candida albicans ATCC 10231 assessed as bacterial killing at concentration of MIC after 5 hrs relative to control; type: functional
Candida albicans [4] = assay: Antifungal activity against Candida albicans ATCC 10231 assessed as reduction in microbial growth; type: functional
Candida parapsilosis [5] = assay: Fungicidal activity against Candida parapsilosis DSM 5784; type: functional; details: Lodderomyces parapsilosis
[6] = Ratio of MFC for fungicidal activity against Saccharomyces cerevisiae ATCC 9763 to MIC for antifungal activity against Saccharomyces cerevisiae ATCC 9763; type: functional
Candida albicans [7] = assay: Fungicidal activity against Candida albicans ATCC 10231 assessed as bacterial killing at concentration of 2 MIC after 5 hrs relative to control; type: functional
Candida albicans [8] = assay: Growth inhibition of Candida albicans ATCC 10231 assessed as reduction in yeast to mycelium formation by measuring reduction in hyphal growth at 0.25 MIC after 3 hrs by light microscopic method relative to control; type: functional
Nakaseomyces glabratus [9] = assay: Fungicidal activity against Candida glabrata DSM 11226; type: functional
Candida parapsilosis [10] = assay: Antifungal activity against Candida parapsilosis ATCC 22019 assessed as reduction in microbial growth; type: functional; details: Lodderomyces parapsilosis
Saccharomyces cerevisiae [11] = assay: Antifungal activity against Saccharomyces cerevisiae ATCC 9763 assessed as reduction in microbial growth; type: functional
Candida albicans [12] = assay: Fungicidal activity against Candida albicans ATCC 10231 assessed as bacterial killing at concentration of 2 MIC after 1 hrs relative to control; type: functional
Pichia kudriavzevii [13] = assay: Fungicidal activity against Candida krusei DSM 6128; type: functional
Pichia kudriavzevii [14] = assay: Antifungal activity against Candida krusei ATCC 6258 assessed as reduction in microbial growth; type: functional
Saccharomyces cerevisiae [15] = assay: Fungicidal activity against Saccharomyces cerevisiae ATCC 9763; type: functional
Candida albicans [16] = assay: Fungicidal activity against Candida albicans ATCC 10231 assessed as bacterial killing at concentration of 4 MIC after 1 hrs relative to control; type: functional
Nakaseomyces glabratus [17] = assay: Antifungal activity against Candida glabrata ATCC 90030 assessed as reduction in microbial growth; type: functional
Candida albicans [18] = assay: Fungicidal activity against Candida albicans ATCC 10231; type: functional
Candida albicans [19] = assay: Fungicidal activity against Candida albicans ATCC 10231 assessed as bacterial killing at concentration of 4 MIC after 5 hrs relative to control; type: functional
Candida albicans [20] = assay: Antifungal activity against fluconazole-resistant Candida albicans F5 assessed as reduction in microbial growth; type: functional
Candida albicans [21] = assay: Growth inhibition of Candida albicans ATCC 10231 assessed as reduction in yeast to mycelium formation by measuring reduction in hyphal growth at concentration of 0.25 MIC after 3 hrs in YPG medium by light microscopic method relative to control; type: functional, organism-based
Candida albicans [22] = assay: Antifungal activity against fluconazole-sensitive Candida albicans F2 assessed as reduction in microbial growth; type: functional
Candida albicans [23] = assay: Fungicidal activity against Candida albicans ATCC 10231 assessed as bacterial killing at concentration of 0.5 MIC after 5 hrs relative to control; type: functional
Saccharomyces cerevisiae [24] = assay: Inhibition of Saccharomyces cerevisiae DNA topoisomerase 2 assessed as decrease in relaxation of supercoiled DNA using supercoiled pBR322 plasmid DNA at 1 to 200 uM gel electrophoresis method; details: dose 1-200 µM
Candida albicans [25] = assay: Antifungal activity against fluconazole-resistant Candida albicans B4 assessed as reduction in microbial growth; type: functional
Candida albicans [26] = assay: Antifungal activity against fluconazole-sensitive Candida albicans B3 assessed as reduction in microbial growth; type: functional
Staphylococcus aureus = assay: Antibacterial activity against Staphylococcus aureus ATCC 9144 assessed as reduction in microbial growth incubated for 48 hrs by photometric method; type: functional
Candida albicans [27] = assay: Fungicidal activity against Candida albicans ATCC 10231 assessed as bacterial killing at concentration of 0.25 to 4 MIC after 1 hrs relative to control; type: functional
Candida albicans [28] = assay: Antifungal activity against Candida albicans CNCM 1180-79 assessed as reduction in microbial growth incubated for 72 hrs by photometric method; type: functional
Candida albicans [29] = assay: Antifungal activity against fluconazole-resistant Candida albicans Gu5 assessed as reduction in microbial growth; type: functional
Candida albicans [30] = assay: Antifungal activity against fluconazole-sensitive Candida albicans Gu4 assessed as reduction in microbial growth; type: functional
Candida albicans [31] = assay: Growth inhibition of Candida albicans ATCC 10231 assessed as reduction in yeast to mycelium formation by measuring reduction in hyphal growth at concentration of 0.25 MIC after 3 hrs in G1cNAc medium by light microscopic method relative to control; type: functional, organism-based
Escherichia coli = assay: Antibacterial activity against Escherichia coli ATCC 10536 assessed as reduction in microbial growth incubated for 48 hrs by photometric method; type: functional
Candida albicans [32] = assay: Fungicidal activity against Candida albicans ATCC 10231 assessed as bacterial killing after 5 hrs; type: functional, organism-based
Trichophyton rubrum = assay: Antifungal activity against Trichophyton rubrum assessed as reduction in microbial growth after 48 hrs by microdilution method; type: functional
Candida albicans [33] = assay: Antibiofilm activity against Candida albicans at 256 ug/ml relative to control; type: functional

SMILES | Activity (Candida albicans [1]) [%] | Activity (Candida albicans [2]) | Activity (Candida albicans [3]) [%] | MIC90 (Candida albicans [4]) [µg/mL] | Ratio [6] | Activity (Candida albicans [7]) [%] | growth inhibition (GI) (Candida albicans [8]) | MFC (Nakaseomyces glabratus [9]) [µg/mL] | MIC90 (Candida parapsilosis [10]) [µg/mL] | MIC90 (Saccharomyces cerevisiae [11]) [µg/mL] | MFC (Pichia kudriavzevii [13]) [µg/mL] | MIC90 (Pichia kudriavzevii [14]) [µg/mL] | MFC (Saccharomyces cerevisiae [15]) [µg/mL] | MIC90 (Nakaseomyces glabratus [17]) [µg/mL] | MFC (Candida albicans [18]) [µg/mL] | also measured
C[C@@H]1[C@H](O)[C@@H](C)/C=C/C=C/C=C/C=C/C=C/C=C/C=C/[C@H](O[C@@H]2O[C@H](C)[C@@H](O)[C@H](N)[C@@H]2O)C[C@@H]2O[C@](O)(C[C@@H](O)C[C@@H](O)[C@H](O)CC[C@@H](O)C[C@@H](O)CC(=O)O[C@H]1C)C[C@H](O)[C@H]2C(=O)O [AMPHOTERICIN B] | 70 | Active | 100 | 0.5 | >=1 | 100 | 100% | 2 (≈ 2.16 µM) | 1 | 0.5 | 2 (≈ 2.16 µM) | 1 | 2 (≈ 2.16 µM) | 1 | 2 (≈ 2.16 µM) | MFC (Candida parapsilosis [5]): 2 µg/mL (≈ 2.16 µM); Activity (Candida albicans [12]): 100%; Activity (Candida albicans [16]): 100%
Cc1ccc([N+](=O)[O-])c2c(NCCO)c3ccccc3nc12 | 5 | Active | 60 | 1 | >=1 | 70 | inactive | > 64 | 64 | 0.5 | 16 (≈ 53.8 µM) | 8 | 0.5 (≈ 1.68 µM) | 8 | 2 (≈ 6.73 µM) | Activity (Candida albicans [19]): 80%; MIC90 (Candida albicans [20]): > 64 µg/mL; growth inhibition (GI) (Candida albicans [21]): inactive; MIC90 (Candida albicans [22]): 2 µg/mL; Activity (Candida albicans [23]): 5%; inhibition (Saccharomyces cerevisiae [24]): inactive; MIC90 (Candida albicans [25]): > 64 µg/mL; MIC90 (Candida albicans [26]): 4 µg/mL; MIC (Staphylococcus aureus): 50 µg/mL; Activity (Candida albicans [27]): 10%; MIC (Candida albicans [28]): 50 µg/mL; MIC90 (Candida albicans [29]): 32 µg/mL; MIC90 (Candida albicans [30]): 4 µg/mL; growth inhibition (GI) (Candida albicans [31]): inactive; MIC (Escherichia coli): 50 µg/mL; Activity (Candida albicans [32]): Dose-dependent effect
O=c1c2cc(O)c(O)c(O)c2[nH]c2cc(O)cc(O)c12 | – | – | – | – | – | – | – | – | – | – | – | – | – | – | – | MIC (Trichophyton rubrum): 15.6 µg/mL
CCN(CC)CCCC(C)Nc1c2ccc(Cl)cc2nc2ccc(OC)cc12 (stereo unspecified) [QUINACRINE] | – | – | – | – | – | – | – | – | – | – | – | – | – | – | – | Activity (Candida albicans [33]): 50%
